Measurements reported in ChEMBL document CHEMBL2439992, “Fused 3-Hydroxy-3-trifluoromethylpyrazoles Inhibit Mutant Huntingtin Toxicity” (ACS Med Chem Lett, 2013).
≈ marks a conversion by molar mass, not a printed value. Calls of active or inactive are those of the source. The rule behind the calls is not given here.

Tests used:
[1] = Kinetic solubility of the compound at pH 7.4; assay type: physicochemical; settings: buffer, read-out: Kinetic_solubility
HEK293 [2] = experiment: Inhibition of full-length huntingtin Q138 mutant (unknown origin) expressed in human T-RexTM-293 cells co-expressing CRE-Luc assessed as decrease of CREB-mediated transcription up to 50 uM after 72 hrs by luciferase reporter gene based luminescence assay; assay type: cell-based
[3] = Inhibition of full-length huntingtin Q138 mutant (unknown origin) expressed in human T-RexTM-293 cells co-expressing CRE-Luc assessed as decrease of CREB-mediated transcription after 72 hrs by luciferase reporter gene based luminescence assay; assay type: cell-based; settings: HEK293, 72 h
[4] = Cytotoxicity in Sprague-Dawley rat striatal neurons; assay type: cell-based; settings: neuron
[5] = Permeability of the compound from apical to basolateral side of MDCK cells expressing MDR1 after 120 mins; assay type: ADME, cell-based, Canis lupus familiaris; settings: dog, read-out: permeability
MDCK = experiment: Efflux ratio of permeability […] in MDCK cells expressing MDR1 after 120 mins; assay type: ADME, cell-based, Canis lupus familiaris; settings: dog, 2 h
[6] = Intrinsic clearance in human liver microsomes at 1 uM in presence of NADPH; assay type: ADME, Microsome; settings: read-out: CLH
[7] = Stability of the compound at pH 3 to 7.4 assessed as dehydration; assay type: physicochemical; settings: buffer
HEK293 [8] = experiment: Inhibition of full-length huntingtin Q138 mutant (unknown origin) expressed in human T-RexTM-293 cells co-expressing CRE-Luc assessed as decrease of CREB-mediated transcription after 72 hrs by luciferase reporter gene based luminescence assay relative to control; assay type: cell-based
Rattus norvegicus = organism: Rattus norvegicus; experiment: Inhibition of huntingtin 171-82Q mutant-mediated cell death in Sprague-Dawley rat striatal neurons at 10 to 30 uM by NeuN-positive cell counting assay
[9] = Intrinsic clearance in mouse liver microsomes at 1 uM in presence of NADPH; assay type: ADME, Microsome; settings: read-out: CLH
[10] = biological target: Huntingtin (Rattus norvegicus) (UniProt P51111); experiment: Inhibition of wild type huntingtin 171-18Q-mediated cell death in Sprague-Dawley rat striatal neurons at 1 to 30 uM by NeuN-positive cell counting assay
Sequence of Huntingtin (Rattus norvegicus) (P51111 whole entry): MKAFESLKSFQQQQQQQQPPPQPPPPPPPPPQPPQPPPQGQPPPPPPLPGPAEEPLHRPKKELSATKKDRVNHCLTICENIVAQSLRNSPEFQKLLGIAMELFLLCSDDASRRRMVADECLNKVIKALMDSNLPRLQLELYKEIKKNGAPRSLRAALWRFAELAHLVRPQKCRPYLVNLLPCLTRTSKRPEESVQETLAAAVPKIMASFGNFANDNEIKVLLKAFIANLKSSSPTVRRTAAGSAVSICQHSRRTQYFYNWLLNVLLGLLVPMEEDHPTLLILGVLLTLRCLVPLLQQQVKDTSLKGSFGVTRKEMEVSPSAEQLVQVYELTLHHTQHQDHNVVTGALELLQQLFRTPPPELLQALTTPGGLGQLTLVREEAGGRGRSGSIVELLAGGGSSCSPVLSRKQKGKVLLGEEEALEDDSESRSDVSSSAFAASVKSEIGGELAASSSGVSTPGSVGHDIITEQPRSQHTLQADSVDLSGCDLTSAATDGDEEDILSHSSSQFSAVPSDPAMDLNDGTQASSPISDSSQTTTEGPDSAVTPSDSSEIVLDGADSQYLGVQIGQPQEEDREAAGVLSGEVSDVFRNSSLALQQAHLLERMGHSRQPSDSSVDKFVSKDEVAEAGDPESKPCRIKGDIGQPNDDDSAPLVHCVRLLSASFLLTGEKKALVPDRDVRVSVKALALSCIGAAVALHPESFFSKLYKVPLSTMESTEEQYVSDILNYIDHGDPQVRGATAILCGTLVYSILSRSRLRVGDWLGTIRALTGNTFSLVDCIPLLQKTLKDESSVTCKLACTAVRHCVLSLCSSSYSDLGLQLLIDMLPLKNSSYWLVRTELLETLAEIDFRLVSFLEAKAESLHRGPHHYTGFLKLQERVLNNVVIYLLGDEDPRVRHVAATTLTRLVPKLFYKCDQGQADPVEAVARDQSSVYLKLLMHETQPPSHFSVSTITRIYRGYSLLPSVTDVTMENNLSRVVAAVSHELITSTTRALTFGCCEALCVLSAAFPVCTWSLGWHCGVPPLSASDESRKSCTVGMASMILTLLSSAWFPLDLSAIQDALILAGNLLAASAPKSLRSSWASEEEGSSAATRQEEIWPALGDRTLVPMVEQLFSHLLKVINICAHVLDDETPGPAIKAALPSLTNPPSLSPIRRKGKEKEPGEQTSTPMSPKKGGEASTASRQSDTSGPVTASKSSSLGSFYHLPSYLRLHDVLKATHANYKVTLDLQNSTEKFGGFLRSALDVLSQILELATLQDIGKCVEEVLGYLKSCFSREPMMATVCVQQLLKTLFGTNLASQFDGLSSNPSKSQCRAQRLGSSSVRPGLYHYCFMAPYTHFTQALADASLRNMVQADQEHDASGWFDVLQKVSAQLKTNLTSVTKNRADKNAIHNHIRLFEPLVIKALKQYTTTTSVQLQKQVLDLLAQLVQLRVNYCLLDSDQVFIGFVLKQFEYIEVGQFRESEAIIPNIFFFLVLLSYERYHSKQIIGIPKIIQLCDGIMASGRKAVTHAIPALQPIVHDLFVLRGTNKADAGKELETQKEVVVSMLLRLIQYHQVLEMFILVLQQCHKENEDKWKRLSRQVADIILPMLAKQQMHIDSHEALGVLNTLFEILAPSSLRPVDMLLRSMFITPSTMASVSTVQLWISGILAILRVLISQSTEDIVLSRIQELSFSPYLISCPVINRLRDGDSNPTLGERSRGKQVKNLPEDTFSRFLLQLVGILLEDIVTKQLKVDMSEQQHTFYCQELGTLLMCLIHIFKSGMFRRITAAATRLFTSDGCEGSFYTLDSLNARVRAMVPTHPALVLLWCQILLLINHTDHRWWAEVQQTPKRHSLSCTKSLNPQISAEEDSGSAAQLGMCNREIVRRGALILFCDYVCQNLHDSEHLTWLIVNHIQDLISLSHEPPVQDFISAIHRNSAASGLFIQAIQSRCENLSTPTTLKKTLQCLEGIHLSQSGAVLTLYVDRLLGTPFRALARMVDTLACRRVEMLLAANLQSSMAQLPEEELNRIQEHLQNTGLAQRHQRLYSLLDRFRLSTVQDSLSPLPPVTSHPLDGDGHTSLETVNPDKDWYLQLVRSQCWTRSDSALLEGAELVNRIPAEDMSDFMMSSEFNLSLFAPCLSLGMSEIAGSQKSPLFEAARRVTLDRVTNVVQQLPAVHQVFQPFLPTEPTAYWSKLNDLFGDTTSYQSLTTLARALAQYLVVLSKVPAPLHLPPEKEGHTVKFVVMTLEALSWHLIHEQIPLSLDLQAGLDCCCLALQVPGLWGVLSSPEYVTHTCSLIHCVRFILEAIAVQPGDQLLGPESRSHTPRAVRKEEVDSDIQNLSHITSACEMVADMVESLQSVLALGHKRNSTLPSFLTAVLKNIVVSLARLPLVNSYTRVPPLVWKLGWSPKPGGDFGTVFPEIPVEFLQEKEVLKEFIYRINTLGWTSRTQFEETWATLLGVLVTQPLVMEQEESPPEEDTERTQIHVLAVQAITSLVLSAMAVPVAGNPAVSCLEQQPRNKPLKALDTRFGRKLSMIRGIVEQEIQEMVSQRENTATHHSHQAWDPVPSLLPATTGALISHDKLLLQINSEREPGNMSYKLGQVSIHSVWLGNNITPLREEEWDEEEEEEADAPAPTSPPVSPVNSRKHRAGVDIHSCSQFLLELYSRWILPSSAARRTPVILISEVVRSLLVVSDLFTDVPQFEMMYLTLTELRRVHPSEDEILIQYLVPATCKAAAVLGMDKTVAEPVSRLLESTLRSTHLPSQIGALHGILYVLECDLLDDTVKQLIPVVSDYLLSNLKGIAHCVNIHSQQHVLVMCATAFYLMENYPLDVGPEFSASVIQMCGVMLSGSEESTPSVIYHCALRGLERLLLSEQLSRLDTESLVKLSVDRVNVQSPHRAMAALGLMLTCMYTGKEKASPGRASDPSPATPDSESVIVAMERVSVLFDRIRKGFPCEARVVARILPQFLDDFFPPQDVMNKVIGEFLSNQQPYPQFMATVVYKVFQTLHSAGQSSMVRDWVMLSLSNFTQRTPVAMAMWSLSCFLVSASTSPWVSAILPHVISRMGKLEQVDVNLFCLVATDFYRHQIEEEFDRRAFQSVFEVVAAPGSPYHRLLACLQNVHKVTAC

Cytochrome P450 1A2 = biological target: T1, Cytochrome P450 1A2 (Homo sapiens, UniProt P05177); experiment: Inhibition of CYP1A2 (unknown origin); assay type: ADME
T1 sequence (P05177 whole entry): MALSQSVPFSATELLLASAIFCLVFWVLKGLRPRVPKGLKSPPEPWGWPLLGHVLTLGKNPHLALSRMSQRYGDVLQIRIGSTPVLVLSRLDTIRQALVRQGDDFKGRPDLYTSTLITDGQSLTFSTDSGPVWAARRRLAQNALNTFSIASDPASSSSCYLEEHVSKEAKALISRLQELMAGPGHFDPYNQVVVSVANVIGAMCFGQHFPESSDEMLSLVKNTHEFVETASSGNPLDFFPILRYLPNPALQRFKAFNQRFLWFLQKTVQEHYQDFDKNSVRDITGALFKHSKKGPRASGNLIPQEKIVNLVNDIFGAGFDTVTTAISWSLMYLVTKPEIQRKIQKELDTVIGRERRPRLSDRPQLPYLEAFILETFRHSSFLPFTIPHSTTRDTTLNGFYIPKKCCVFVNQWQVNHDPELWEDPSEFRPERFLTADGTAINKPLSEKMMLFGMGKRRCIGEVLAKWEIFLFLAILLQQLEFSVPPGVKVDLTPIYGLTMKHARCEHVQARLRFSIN

Mus musculus [11] = experiment: Toxicity in R6/2 transgenic mouse assessed as motor impairment at 1 to 30 mg/kg, po qd; assay type: organism-based; parameters: dose 1-30 mg/kg, route oral; settings: in vivo
Cytochrome P450 3A4 [12] = biological target: T2, Cytochrome P450 3A4 (Homo sapiens, UniProt P08684); experiment: Inhibition of CYP3A4 (unknown origin) using nifedipine as substrate; assay type: ADME
T2 sequence (P08684 whole entry): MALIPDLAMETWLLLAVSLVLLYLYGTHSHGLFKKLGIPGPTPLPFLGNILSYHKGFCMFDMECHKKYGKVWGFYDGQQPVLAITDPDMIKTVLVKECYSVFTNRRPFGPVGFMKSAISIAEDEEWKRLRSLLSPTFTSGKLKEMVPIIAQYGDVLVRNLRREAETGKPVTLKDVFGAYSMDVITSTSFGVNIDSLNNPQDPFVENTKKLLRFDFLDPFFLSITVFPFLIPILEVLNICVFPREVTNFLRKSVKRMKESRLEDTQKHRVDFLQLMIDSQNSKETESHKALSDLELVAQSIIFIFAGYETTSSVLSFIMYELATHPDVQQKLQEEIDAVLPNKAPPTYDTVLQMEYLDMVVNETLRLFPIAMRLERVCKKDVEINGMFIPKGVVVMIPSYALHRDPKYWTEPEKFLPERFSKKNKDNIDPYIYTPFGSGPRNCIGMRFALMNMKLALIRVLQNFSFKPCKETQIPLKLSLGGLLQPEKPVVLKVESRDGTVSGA

Mus musculus [13] = experiment: Antihuntington's disease activity in R6/2 transgenic mouse assessed as prevention of ventricular volume enlargment at 3 to 30 mg/kg, po qd measured after 8 weeks; assay type: functional, organism-based
Mus musculus [14] = experiment: Toxicity in R6/2 transgenic mouse assessed as mortality at 1 to 30 mg/kg, po qd; assay type: organism-based; parameters: dose 1-30 mg/kg, route oral; settings: in vivo
Cytochrome P450 2C19 = Cytochrome P450 2C19 (Homo sapiens, UniProt P33261); experiment: Inhibition of CYP2C19 (unknown origin); assay type: ADME
Mus musculus [15] = experiment: Ex vivo antihuntington's disease activity in R6/2 transgenic mouse assessed as decrease of cerebral ventricles size at 3 to 30 mg/kg, po qd measured after 8 weeks by MRI analysis; assay type: functional, organism-based
PC-12 [16] = experiment: Inhibition of GFP tagged-exon-1 fragment of huntingtin 74Q mutant (unknown origin) expressed in rat PC12 cells assessed as protection against doxycycline-induced cell death after 72 hrs by LDH release assay; assay type: cell-based; settings: Homo sapiens
[17] = biological target: Voltage-gated inwardly rectifying potassium channel KCNH2 (Homo sapiens, UniProt Q12809); experiment: Inhibition of human ERG up to 100 uM
Sequence of Voltage-gated inwardly rectifying potassium channel KCNH2 (Q12809 whole entry): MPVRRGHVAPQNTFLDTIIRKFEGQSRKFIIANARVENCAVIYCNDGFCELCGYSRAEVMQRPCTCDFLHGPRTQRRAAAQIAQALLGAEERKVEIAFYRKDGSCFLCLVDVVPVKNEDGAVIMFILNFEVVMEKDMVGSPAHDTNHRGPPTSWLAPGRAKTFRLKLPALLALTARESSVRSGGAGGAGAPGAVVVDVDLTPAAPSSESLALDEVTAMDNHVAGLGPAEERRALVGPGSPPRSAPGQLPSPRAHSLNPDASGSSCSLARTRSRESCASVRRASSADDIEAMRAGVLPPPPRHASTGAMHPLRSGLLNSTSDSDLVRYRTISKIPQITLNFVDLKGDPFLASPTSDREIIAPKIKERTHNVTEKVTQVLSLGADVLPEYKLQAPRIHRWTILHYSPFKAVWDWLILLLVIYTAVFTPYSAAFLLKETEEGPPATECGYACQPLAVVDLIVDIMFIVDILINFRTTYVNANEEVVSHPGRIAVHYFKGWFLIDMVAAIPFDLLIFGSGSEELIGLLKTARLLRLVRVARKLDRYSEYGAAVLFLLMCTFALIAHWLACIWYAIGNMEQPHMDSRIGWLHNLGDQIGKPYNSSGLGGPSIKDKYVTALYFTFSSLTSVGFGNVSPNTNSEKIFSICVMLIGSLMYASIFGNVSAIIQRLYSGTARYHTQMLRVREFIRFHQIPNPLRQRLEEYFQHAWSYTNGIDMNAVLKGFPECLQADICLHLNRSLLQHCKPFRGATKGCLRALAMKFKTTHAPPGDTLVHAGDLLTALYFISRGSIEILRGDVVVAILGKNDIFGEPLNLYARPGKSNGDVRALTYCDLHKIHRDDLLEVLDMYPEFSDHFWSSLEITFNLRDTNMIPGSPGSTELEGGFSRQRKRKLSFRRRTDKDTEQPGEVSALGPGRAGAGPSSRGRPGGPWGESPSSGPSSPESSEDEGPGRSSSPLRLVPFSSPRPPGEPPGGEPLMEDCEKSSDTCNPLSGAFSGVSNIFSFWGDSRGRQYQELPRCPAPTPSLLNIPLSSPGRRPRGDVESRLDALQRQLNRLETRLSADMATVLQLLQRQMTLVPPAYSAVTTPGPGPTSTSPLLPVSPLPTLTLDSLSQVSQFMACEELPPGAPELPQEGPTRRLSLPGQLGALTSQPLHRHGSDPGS

Cytochrome P450 2D6 = Cytochrome P450 2D6 (Homo sapiens, UniProt P10635); experiment: Inhibition of CYP2D6 (unknown origin); assay type: ADME
Cytochrome P450 2C9 = Cytochrome P450 2C9 (Homo sapiens, UniProt P11712); experiment: Inhibition of CYP2C9 (unknown origin); assay type: ADME
Mus musculus [18] = experiment: Antihuntington's disease activity in R6/2 transgenic mouse assessed as decrease in body weight at 10 to 30 mg/kg, po qd; assay type: functional, organism-based
Mus musculus [19] = experiment: Antihuntington's disease activity in R6/2 transgenic mouse assessed as decrease of cerebral ventricles size at 3 to 30 mg/kg, po qd measured after 8 weeks; assay type: functional, organism-based
[20] = Ratio of drug level in brain to plasma in CD1 mouse at 5 mg/kg, po and iv; assay type: ADME, organism-based; parameters: dose 5 mg/kg, route oral; settings: read-out: BPR
PC-12 [21] = experiment: Cytoprotective activity in rat PC12 cells after 72 hrs by LDH release assay; assay type: ADME, cell-based; settings: pc-12, 72 h
Cytochrome P450 3A4 [22] = biological target: T2, Cytochrome P450 3A4; experiment: Inhibition of CYP3A4 (unknown origin) using testosterone as substrate; assay type: ADME
Salmonella typhimurium = experiment: Genotoxicity in Salmonella typhimurium by Ames test; assay type: toxicity, organism-based; settings: salmonella enterica subsp. enterica serovar typhimurium

Row | SMILES | solubility kinetic [1] | EC50 [3] | Papp A→B at 2 h [5] | Ratio (MDCK) | microsomal CLint at 1 µM [6] | Stability [7] | Emax (HEK293 [8]) | microsomal CLint at 1 µM [9] | further results
1 | CC1=NN(C(=O)c2cccc(C)c2O)C(O)(C(F)(F)F)C1C (centres undefined) | 5 µM (≈ 1.58 µg/mL) | > 50 µM |  |  |  |  |  |  | inhibition (HEK293 [2]): inactive
2 | Cn1cnc(S(=O)(=O)N2N=C3CCCC[C@@H]3[C@@]2(O)C(F)(F)F)c1 (racemic) | 156 µM (≈ 55 µg/mL) | 1.7 µM | 12.8 ×10⁻⁶ cm/s | 0.9 | 37.6 µL/min/mg | Stable | 41% | 28.3 µL/min/mg | Activity [4]: Non-toxic; inhibition (Rattus norvegicus): Active; inhibition [10]: Active
3 | Cc1cccc(C(=O)N2N=C3CCCC[C@@H]3[C@@]2(O)C(F)(F)F)c1O (racemic) | 101 µM (≈ 34.6 µg/mL) | 5.2 µM | 31.6 ×10⁻⁶ cm/s | 0.8 | 352 µL/min/mg | Stable | 32% | > 700 µL/min/mg | 
4 | Cn1cc(Br)c(C(=O)N2N=C3CCCC[C@@H]3[C@@]2(O)C(F)(F)F)n1 (racemic) | 114 µM (≈ 45.1 µg/mL) | 4.9 µM | 39.3 ×10⁻⁶ cm/s | 1 | 17.7 µL/min/mg | Stable | 29% | 101 µL/min/mg | Activity [4]: Non-toxic; inhibition (Rattus norvegicus): Active; inhibition [10]: Active
5 | O=C(c1ccncc1)N1N=C2CCCC[C@@H]2[C@@]1(O)C(F)(F)F (racemic) | 98 µM (≈ 30.7 µg/mL) | 9.1 µM | 36 ×10⁻⁶ cm/s | 1.1 | 21.4 µL/min/mg | Stable | 42% | 54.6 µL/min/mg | Activity [4]: Non-toxic; inhibition (Rattus norvegicus): Active; inhibition [10]: Active
6 | O=C(c1ccc[nH]1)N1N=C2CCCC[C@@H]2[C@@]1(O)C(F)(F)F (racemic) | 72 µM (≈ 21.7 µg/mL) | 28.7 µM |  |  |  | Stable | 20% |  | 
7 | Cc1ccc(C(=O)N2N=C3CCCC[C@@H]3[C@@]2(O)C(F)(F)F)cn1 (racemic) | 212 µM (≈ 69.4 µg/mL) | 3.7 µM | 43.4 ×10⁻⁶ cm/s | 1.5 | 19.2 µL/min/mg | Stable | 43% | 174 µL/min/mg | 
8 | Nc1nc(C(=O)N2N=C3CCCC[C@@H]3[C@@]2(O)C(F)(F)F)cs1 (racemic) | 96 µM (≈ 32.1 µg/mL) | 1.8 µM | 31 ×10⁻⁶ cm/s | 1.1 | 13.6 µL/min/mg | Stable | 44% | 27.6 µL/min/mg | INH (Cytochrome P450 1A2): > 30 µM; Activity (Mus musculus [11]): Non-toxic; INH (Cytochrome P450 3A4 [12]): > 30 µM; Activity (Mus musculus [13]): Active; Activity [4]: Non-toxic; Activity (Mus musculus [14]): Non-toxic; INH (Cytochrome P450 2C19): 24.4 µM; Activity (Mus musculus [15]): Active; inhibition (PC-12 [16]): Active; inhibition (INH) [17]: Not Active; INH (Cytochrome P450 2D6): > 30 µM; INH (Cytochrome P450 2C9): > 30 µM; Activity (Mus musculus [18]): Active; Activity (Mus musculus [19]): Active; inhibition (Rattus norvegicus): Active; Kp [20]: 0.34; inhibition [10]: Active; Activity (PC-12 [21]): Non-toxic; INH (Cytochrome P450 3A4 [22]): > 30 µM; Activity (Salmonella typhimurium): Non-toxic
9 | Cn1cc(N)c(C(=O)N2N=C3CCCC[C@@H]3[C@@]2(O)C(F)(F)F)n1 (racemic) | 205 µM (≈ 67.9 µg/mL) | 6.6 µM | 17.2 ×10⁻⁶ cm/s | 1.6 | < 5 µL/min/mg | Stable | 30% | 22.9 µL/min/mg | 
10 | Nc1nc(C(=O)N2N=C3CCCC[C@@H]3[C@@]2(O)C(F)(F)F)co1 (racemic) | 153 µM (≈ 48.7 µg/mL) | 17.1 µM | 29.1 ×10⁻⁶ cm/s | 1.1 | 6.1 µL/min/mg | Stable | 21% | 21.1 µL/min/mg | 
11 | CCNc1cn(C)nc1C(=O)N1N=C2CCCC[C@@H]2[C@@]1(O)C(F)(F)F (racemic) | 182 µM (≈ 65.4 µg/mL) | 19.9 µM |  |  |  | Stable | 37% |  | 
12 | Cc1ccc(C(=O)N2N=C3CCCCC[C@@H]3[C@@]2(O)C(F)(F)F)cn1 (racemic) | 56 µM (≈ 19.1 µg/mL) | 10 µM |  |  |  | Stable | 30% |  | 
13 | O=C(c1ccncc1)N1N=C2CCCCC[C@@H]2[C@@]1(O)C(F)(F)F (racemic) | 96 µM (≈ 31.4 µg/mL) | 10.8 µM | 36.2 ×10⁻⁶ cm/s | 1 | 71.9 µL/min/mg | Stable | 34% | 170 µL/min/mg | 
14 | O=C(c1ccc[nH]1)N1N=C2CCCCC[C@@H]2[C@@]1(O)C(F)(F)F (racemic) | 30 µM (≈ 9.46 µg/mL) | 14.2 µM |  |  |  | Stable | 6% |  | 
15 | O=C(c1cncc(Br)c1)N1N=C2CCOC[C@@H]2[C@@]1(O)C(F)(F)F (racemic) | 111 µM (≈ 43.8 µg/mL) | 22.4 µM |  |  |  | Stable | 24% |  | 
16 | O=C(c1cccnc1)N1N=C2CCOC[C@@H]2[C@@]1(O)C(F)(F)F (racemic) | 187 µM (≈ 59 µg/mL) | 6.1 µM | 29.2 ×10⁻⁶ cm/s | 1.1 | 15.7 µL/min/mg | Stable | 40% | 16.6 µL/min/mg | 
17 | CCOC(=O)c1c[nH]nc1S(=O)(=O)N1N=C2CCCC[C@@H]2[C@@]1(O)C(F)(F)F (racemic) | 111 µM (≈ 45.6 µg/mL) | 1.8 µM |  |  |  | Stable | 34% |  | 
18 | Cc1nn(C)c(Cl)c1S(=O)(=O)N1N=C2CCOC[C@@H]2[C@@]1(O)C(F)(F)F (racemic) |  | 30 µM |  |  |  | Stable | -17% |  | 
